A word on the IC50: it is the concentration at which inhibition is half-maximal.

We go through five compounds from ChEMBL document CHEMBL3085777, “Improved synthesis and in vitro evaluation of the cytotoxic profile of oxysterols oxidized at C4 (4α- and 4β-hydroxycholesterol) and C7 (7-ketocholesterol, 7α- and 7β-hydroxycholesterol) on cells of the central nervous system” (Eur J Med Chem, 2013).

In data set [1] the test system is C6. Description: Cytostatic activity against rat C6 cells assessed as growth inhibition after 24 hrs by trypan blue-based cell counting method. In kind it is functional. The conditions noted are these: C6, 24 h.
Data set [2] deals with C6. Kind of data set: Cytostatic activity against rat C6 cells assessed as cell viability after 24 hrs by trypan blue-based cell counting method. In kind it is functional. The conditions noted are these: C6, 24 h, read-out: LD50 (the source's name).
A short description of data set [3]: Cytostatic activity against mouse 158N cells assessed as growth inhibition after 24 hrs by trypan blue-based cell counting method.
Data set [4] in a line: Cytostatic activity against mouse 158N cells assessed as cell viability after 24 hrs by trypan blue-based cell counting method. The note with it: read-out: LD50.
A short description of data set [5]: Growth inhibition of BALB/cJRj mouse astrocytes/oligodendrocytes at 50 uM after 24 hrs by trypan blue-based cell counting method.
Data set [6] in a line: Cytotoxicity against BALB/cJRj mouse astrocytes/oligodendrocytes assessed as cell viability at 50 uM after 24 hrs by trypan blue-based cell counting method. The conditions noted are these: for Activity: 24 h, 50 µM; for viability at 24 h, 50 µM: BALB/cJRj, astrocytes/oligodendrocytes, read-out: Activity.
Data set [7] in a line: Growth inhibition of human SK-N-BE cells after 24 hrs by trypan blue-based cell counting method. The format is functional.
Data set [8] can be described thus: Cytotoxicity against human SK-N-BE cells assessed as cell viability after 24 hrs by trypan blue-based cell counting method. In kind it is functional. The note with it: read-out: LD50 (the source's name).
The test system of data set [9] is C6. Kind of data set: Growth inhibition of rat C6 cells after 24 hrs by trypan blue-based cell counting method. The note with it: C6, 24 h. The format is functional.
Data set [10] relates to C6. Description: Cytotoxicity against rat C6 cells assessed as cell viability after 24 hrs by trypan blue-based cell counting method. The format is functional. The note with it: C6, 24 h, read-out: LD50 (the source's name).
Data set [11] in a line: Growth inhibition of mouse 158N cells after 24 hrs by trypan blue-based cell counting method.
Data set [12] in a line: Cytotoxicity against mouse 158N cells assessed as cell viability after 24 hrs by trypan blue-based cell counting method. The note with it: read-out: LD50.

Molecules are shown by their SMILES. Some results are limits rather than exact numbers.

Regarding `CC(C)CCC[C@@H](C)[C@H]1CC[C@H]2[C@@H]3CC=C4[C@H](O)[C@@H](O)CC[C@]4(C)[C@H]3CC[C@]12C`, the IC50 is at least 160 µM in the data set on C6 [1], 40 µM in data set [3] and over 160 µM in data set [7]. Also, the CC50 (in the data set on C6 [2]; in data set [8]) was over 160 µM throughout. The CC50 at 24 h in data set [4] is over 160 µM. Moreover, the Activity entry in data set [5] and in data set [6] was “Non-toxic” throughout.

For the compound `CC(C)CCC[C@@H](C)[C@H]1CC[C@H]2[C@@H]3[C@H](O)C=C4C[C@@H](O)CC[C@]4(C)[C@H]3CC[C@]12C`, the Activity entry in [5] and in data set [6] was “Non-toxic” each time. For the same compound, the results for the IC50 (in data set [7]; in the data set with C6 [9]; in data set [11]) were at least 160 µM, 40 µM and 15 µM, respectively. Also, the figures for the CC50 (in [8]; in the data set with C6 [10]) were over 160 µM and at least 160 µM, respectively. Moreover, the CC50 at 24 h in [12] was 60 µM.

For the compound `CC(C)CCC[C@@H](C)[C@H]1CC[C@H]2[C@@H]3CC=C4[C@@H](O)[C@@H](O)CC[C@]4(C)[C@H]3CC[C@]12C`, the IC50 with C6 [1] is at least 160 µM; in [3], 30 µM; in data set [7], over 160 µM. Moreover, the CC50 (in the data set with C6 [2]; in [8]) was over 160 µM throughout. Moreover, the CC50 at 24 h in data set [4] was over 160 µM. Also, the Activity result in data set [5] and in [6] was “Non-toxic” throughout.

`CC(C)CCC[C@@H](C)[C@H]1CC[C@H]2[C@@H]3[C@@H](O)C=C4C[C@@H](O)CC[C@]4(C)[C@H]3CC[C@]12C`: the Activity entry in data set [5] is “Toxic”. In addition, the viability at 24 h, 50 µM in data set [6] was determined as 19.9%. The IC50 in [7] amounted to 20 µM; with C6 [9], 15 µM; in data set [11], 15 µM. Moreover, the CC50 in [8] was found to be 55 µM; in the data set with C6 [10], 60 µM. Further, in [12], the CC50 at 24 h came to 15 µM.

`CC(C)CCC[C@@H](C)[C@H]1CC[C@H]2[C@@H]3C(=O)C=C4C[C@@H](O)CC[C@]4(C)[C@H]3CC[C@]12C` [7-OXOCHOLESTEROL]: the Activity result in data set [5] is recorded as “Toxic”. Also, the viability at 24 h, 50 µM in data set [6] is 70.5%. The IC50 is 20 µM in data set [7], 20 µM in the data set with C6 [9] and 10 µM in [11]. The CC50 (in [8]; in the data set on C6 [10]) was 60 µM in each case. In addition, the CC50 at 24 h in data set [12] turned out to be 30 µM.
